In US20120122727A1, “IN VITRO METHOD FOR PREDICTING WHETHER A COMPOUND IS GENOTOXIC IN VIVO” (priority 2009, published 2012):

Tested on: primary mouse hepatocytes
Assay: Gene expression (Affymetrix Mouse Genome 430 2.0) in primary mouse hepatocytes, true vs false GTX, 24 h and 48 h
Settings: log2, corrected for vehicle control

## CC(=O)Nc1ccc2c(c1)Cc1ccccc1-2 [2-AAF, 2-Acetylaminofluorene]
24 h average
  Gene expression data AF000969 (Cadps2): −0.5371
  Gene expression data AF022072 (Grb10): 0.5527
  Gene expression data AF065917 (Lif): −0.1242
  Gene expression data AF204959 (Cyp3a25 /// LOC622249): 0.2152
  Gene expression data AF297615 (Ggta1): 0.03187
  Gene expression data AI594683 (Dmn): −0.2452
  Gene expression data AI596632 (Ptprg /// LOC632664): −0.0981
  Gene expression data AI987929 (Ndrg1): 0.8432
  Gene expression data AK004419 (Fbxl17): −0.168
  Gene expression data AK005731 (1700007K13Rik): 0.08277
  Gene expression data AK007766 (1810044A24Rik): 0.01003
  Gene expression data AK007854 (1810053B23Rik): −0.9008
  Gene expression data AK009736 (Gpr137b /// LOC664862 /// LOC673335): −0.00723
  Gene expression data AK010447 (Smyd3): −0.1751
  Gene expression data AK014608 (4632434l11Rik): −0.09823
  Gene expression data AK019979 (2610528E23Rik): 0.3248
  Gene expression data AV095209 (Mthfd1l): 0.4403
  Gene expression data AV141095 (1110033M05Rik): −0.2881
  Gene expression data AV173571 (1700106N22Rik): −0.04133
  Gene expression data AV219418 (Ldhb): −0.3695
  Gene expression data AV223474 (Zdhhc14): −0.4459
  Gene expression data AV298304 (Homez): −0.1831
  Gene expression data AV327248 (Zfp365 /// LOC674611): 0.0668
  Gene expression data AV377066 (9130221J18Rik): −0.6586
  Gene expression data AW240761 (Tbc1d5): −0.0924
  Gene expression data AW543460 (Pard3): −0.3156
  Gene expression data AW543723: 0.1065
  Gene expression data AW986246 (Maoa): 0.01853
  Gene expression data BB027848 (4732466D17Rik): −0.252
  Gene expression data BB043558 (9230114K14Rik): −0.1205
  Gene expression data BB275142 (AW456874): −0.02303
  Gene expression data BB308836 (Ppm1l): −0.1499
  Gene expression data BB318221 (Zdhhc14): −0.411
  Gene expression data BB463610 (4632434l11Rik): −0.3778
  Gene expression data BB526605 (Mipol1): 0.3466
  Gene expression data BB770528 (Rai2): −0.5052
  Gene expression data BB821363 (Scfd2): −0.1216
  Gene expression data BC004827 (Psat1): 0.2797
  Gene expression data BC008626 (Icam1): −0.6353
  Gene expression data BC010462 (BC010462): −0.1475
  Gene expression data BC012247 (Dcxr): −0.08253
  Gene expression data BC012260 (Psmf1): −0.646
  Gene expression data BC015270 (Hist2h3c2): −0.1327
  Gene expression data BC016073 (Cdkal1): −0.1464
  Gene expression data BC016265 (Ube2e2): −0.3984
  Gene expression data BC019882 (Acaa1b): 1.3218
  Gene expression data BC025501 (Aaas): −0.1475
  Gene expression data BC025837 (Sbk1): −0.2976
  Gene expression data BC025915 (Cova1): −0.1568
  Gene expression data BC026422 (Tgm1): −0.1664
  Gene expression data BF719766 (Thyn1): −0.0442
  Gene expression data BG065754 (Ccng1): 0.0569
  Gene expression data BG066903 (Kif16b): −0.2125
  Gene expression data BG069873 (Gnb1l): −0.2747
  Gene expression data BG070887 (Gtdc1): −0.01607
  Gene expression data BG076151 (Ppm1d): −0.1219
  Gene expression data BG261907 (Large): −0.2502
  Gene expression data BI651416 (Cdc42bpg): 0.1552
  Gene expression data BI660702 (Ell3): 0.1219
  Gene expression data BM198879 (Ercc5): −0.2382
  Gene expression data BM230508 (A030007D23Rik): 0.282
  Gene expression data NM_007987 (Fas): 0.06923
  Gene expression data NM_008522 (Ltf): 0.1277
  Gene expression data NM_008576 (Abcc1): 0.3321
  Gene expression data NM_011176 (St14): −0.03387
  Gene expression data NM_011316 (Saa4): −0.3157
  Gene expression data NM_012006 (Acot1): 1.9403
  Gene expression data NM_013866 (Zfp385): −0.136
  Gene expression data NM_018770 (Igsf4a): −0.2065
  Gene expression data NM_021451 (Pmaip1): −0.7054
  Gene expression data NM_025770 (Atg10): 0.01663
  Gene expression data NM_028803 (Gbe1): −0.2716
  Gene expression data NM_030697 (Ankrd47): −0.252
  Gene expression data NM_053168 (Trim11): −0.2676
  Gene expression data NM_134188 (Acot2): 0.597
  Gene expression data Y15910 (Diap2): −0.366
48 h
  Gene expression AA561726 average: −0.7419
  Gene expression AF000969 average: −0.8319
  Gene expression AF022072 average: 0.0482
  Gene expression AF033112 average: −0.03947
  Gene expression AF055573 average: −0.2895
  Gene expression AF069954 average: 0.3518
  Gene expression AF297615 average: −0.6791
  Gene expression AF335325 average: −0.3088
  Gene expression AI594683 average: −0.05213
  Gene expression AI747296 average: −0.5003
  Gene expression AK005731 average: 0.01113
  Gene expression AK007854 average: 1.4303
  Gene expression AK010447 average: −0.3256
  Gene expression AK010738 average: 0.1851
  Gene expression AK014608 average: −0.01987
  Gene expression AK017734 average: 0.0451
  Gene expression AK018383 average: 0.2303
  Gene expression AK019979 average: −0.5099
  Gene expression AV095209 average: −0.3718
  Gene expression AV141095 average: −0.5829
  Gene expression AV173869 average: −0.3782
  Gene expression AV216768 average: −0.6814
  Gene expression AV219418 average: 0.7839
  Gene expression AV221299 average: 0.6759
  Gene expression AV246296 average: −0.54
  Gene expression AV251625 average: 0.07103
  Gene expression AV254764 average: −0.006467
  Gene expression AV327248 average: −0.09177
  Gene expression BB009155 average: −0.5851
  Gene expression BB027848 average: 0.5378
  Gene expression BB043558 average: 0.196
  Gene expression BB046347 average: 0.2178
  Gene expression BB140436 average: 0.4693
  Gene expression BB204486 average: −0.6445
  Gene expression BB223872 average: 0.3216
  Gene expression BB246912 average: −0.2264
  Gene expression BB275142 average: 0.1102
  Gene expression BB458460 average: −0.3368
  Gene expression BB463610 average: 0.0872
  Gene expression BB730977 average: −0.9937
  Gene expression BB743970 average: 0.7664
  Gene expression BB770528 average: −0.5594
  Gene expression BB781615 average: −0.1164
  Gene expression BC003284 average: 0.02563
  Gene expression BC004827 average: −0.2015
  Gene expression BC005552 average: −0.126
  Gene expression BC006713 average: 0.4411
  Gene expression BC010318 average: −0.02213
  Gene expression BC012247 average: 0.6286
  Gene expression BC012955 average: 0.05073
  Gene expression BC013893 average: 0.4936
  Gene expression BC017615 average: −0.5229
  Gene expression BC019379 average: −1.215
  Gene expression BC019882 average: 1.577
  Gene expression BC021352 average: −1.127
  Gene expression BC022148 average: 0.456
  Gene expression BC025169 average: −0.2222
  Gene expression BC026131 average: −0.3489
  Gene expression BC027026 average: 0.8063
  Gene expression BC027121 average: −0.1341
  Gene expression BC027185 average: 0.4588
  Gene expression BE956581 average: 0.1808
  Gene expression BF719766 average: 0.2652
  Gene expression BG065754 average: 0.3738
  Gene expression BG066491 average: −1.541
  Gene expression BG076151 average: −0.3358
  Gene expression BG076333 average: −0.1306
  Gene expression BG797099 average: −0.06173
  Gene expression BG967046 average: 0.0391
  Gene expression BI651416 average: 0.3502
  Gene expression BI966443 average: 0.1201
  Gene expression BM198879 average: −0.2887
  Gene expression BM200015 average: 0.5127
  Gene expression BM230508 average: 0.0745
  Gene expression BM936480 average: 0.9169
  Gene expression BQ174991 average: −0.3426
  Gene expression L21027 average: −0.729
  Gene expression NM_007556 average: 0.02703
  Gene expression NM_007980 average: 1.503
  Gene expression NM_007987 average: 0.516
  Gene expression NM_008522 average: 0.1967
  Gene expression NM_008935 average: 0.02783
  Gene expression NM_009897 average: −0.003733
  Gene expression NM_011075 average: −0.5522
  Gene expression NM_011176 average: −0.2632
  Gene expression NM_011316 average: 0.4369
  Gene expression NM_012006 average: 2.771
  Gene expression NM_013642 average: −0.6535
  Gene expression NM_013738 average: −0.2396
  Gene expression NM_013929 average: −0.04163
  Gene expression NM_018881 average: 0.9061
  Gene expression NM_019738 average: −0.193
  Gene expression NM_030697 average: −0.4783
  Gene expression NM_053122 average: −0.106
  Gene expression NM_134147 average: 0.04213
  Gene expression NM_134188 average: 0.9088
  Gene expression X62701 average: −0.356
